Measurements reported in article PMC11523249, “Expanding the antiprotozoal activity and the mechanism of action of n-butyl and iso-butyl ester of quinoxaline-1,4-di-N-oxide derivatives against Giardia lamblia, Trichomonas vaginalis, and Entamoeba histolytica. An in vitro and in silico approach” (Journal of Enzyme Inhibition and Medicinal Chemistry, 2024).
Read-outs that look alike come from different tables or passages of the source.

What was measured:
T. vaginalis GT3 strain = assay: In vitro susceptibility assay, T. vaginalis trophozoites; type: cell-based, Trichomonas vaginalis
Description: (§1) G. lamblia WB strain, T. vaginalis GT3 strain, and E. histolytica strain HM1-IMSS were used in all experiments, all parasitic strains were obtained from the Unidad de Investigación Médica en Enfermedades Infecciosas y Parasitarias, Hospital de Pediatría, Instituto Mexicano del Seguro Social. In vitro susceptibility assays to determine IC50 values were performed using a method previously described. For this, 4 × 10^4 G. lamblia; 6 × 10^3 E. histolytica, or 4 × 10^4 T. vaginalis trophozoites were incubated for 48 h at 37 °C with different concentrations of quinoxaline derivatives T-137 to T-170 (0.5 ng/mL to 10 μg/mL) using dimethyl sulfoxide (DMSO) (0.05%) as solvent. Metronidazole and albendazole were used as positive controls, and parasites in the medium without drugs containing DMSO (0.05%) were included as negative controls. At the end of the incubation period, trophozoites were washed and subcultured for another 48 h in a fresh medium without drugs. Then, trophozoites were counted with a haemocytometer and the IC50 was calculated by Probit analysis. Experiments were carried out in triplicate and repeated at least twice.

G. lamblia WB strain = assay: In vitro susceptibility assay, G. lamblia trophozoites; type: cell-based, Giardia lamblia
Description: as §1

[1] = system: E. histolytica strain HM1-IMSS; assay: In vitro susceptibility assay, E. histolytica trophozoites; type: cell-based, Entamoeba histolytica
Description: as §1

[2] = system: murine macrophage cell line J774.2; assay: Cytotoxic evaluation, MTT colorimetric assay; type: cell-based; details: murine macrophages J774.2, read-out: Cytotoxicity (Macrophages J774.2) (CC50)
Description: The murine macrophage cell line J774.2 was maintained in culture flasks with RPMI 1640 medium supplemented with 10% FBS, and 100 U/mL antibiotic-antifungal mixture (Gibco). Cells were incubated at 37 °C with 5% CO2 and humidity. Murine macrophage cell line J774.2 is maintained at Laboratorio de Estudios Epidemiológicos, Clínicos, Diseños Experimentales e Investigación, Facultad de Ciencias Químicas, Universidad Autónoma “Benito Juárez” de Oaxaca. Macrophages were washed and viability was assessed by the MTT colorimetric assay. In a 96-well microplate, 1 × 10^5 macrophages were added per well and a dose-response assay was performed. Compounds were evaluated using serial dilutions to determine half-maximal cytotoxic concentration (CC50) values in triplicate considering 0.2% DMSO as negative control.

[3] = molecular target: T1, recombinant E. histolytica thioredoxin reductase (EhTRXR) (Entamoeba histolytica, UniProt C4LW95); assay: Inhibition of EhTrxR DTNB reductase activity; type: biochemical; details: for inhibition at 100 µM: pH 7, read-out: EhTrxR inhibitory effect (disulphide reductase activity)
T1 construct: His-tag (pET28a) (N); made in house; host or cells: E. coli BL21 (DE3)
T1 sequence (C4LW95 1-314): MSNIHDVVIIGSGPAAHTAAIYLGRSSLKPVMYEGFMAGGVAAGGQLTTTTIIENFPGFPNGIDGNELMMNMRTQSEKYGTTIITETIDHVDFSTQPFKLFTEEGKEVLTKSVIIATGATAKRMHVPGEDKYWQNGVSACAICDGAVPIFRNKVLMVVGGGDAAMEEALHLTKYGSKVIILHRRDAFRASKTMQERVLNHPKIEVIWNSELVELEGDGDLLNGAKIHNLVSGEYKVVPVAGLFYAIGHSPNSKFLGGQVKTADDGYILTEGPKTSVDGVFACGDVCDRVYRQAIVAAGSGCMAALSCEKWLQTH
Description: Recombinant E. histolytica thioredoxin reductase (EhTRXR) was expressed in E. coli BL21 (DE3) as His-tag (N-terminal) recombinant proteins using pET28a vector, and it was purified using IMAC as previously described. 5,5′-Dithiobis(2-nitrobenzoic acid) (DTNB) reductase activity was measured by monitoring the production of thionitrobenzoate at 405 nm in a reaction mixture comprising 50 mM potassium phosphate, pH 7.0, 2 mM EDTA, 300 µM NADPH, 5 mM DTNB, and 0.1 µM EhTRXR. Activity was calculated using the molar extinction coefficient at 405 nm of 13.6 mM^−1cm^− 1 and considering that 1 mol of NADPH yields 2 mol of thionitrobenzoate. The enzyme assays were performed at 30 °C, in a final volume of 50 μL, and using a Multiskan Ascent one-channel vertical light path filter photometer (Thermo Electron Co.). All results represent the arithmetic mean of at three independent experiments.

[4] = Trichomonas vaginalis, GT3, 48 h, read-out: T. vaginalis (IC50 nM), trophozoites, 48 h at 37 °C, subcultured 48 h, Probit analysis
[5] = Giardia duodenalis, 48 h, read-out: G. lamblia (IC50 nM), trophozoites, 48 h at 37 °C, subcultured 48 h, Probit analysis
[6] = Entamoeba histolytica, 48 h, read-out: E. histolytica (IC50 nM), trophozoites, 48 h at 37 °C, subcultured 48 h, Probit analysis
[7] = read-out: T. vaginalis (IC50 nM), trophozoites, 48 h at 37 °C, subcultured 48 h, Probit analysis
[8] = read-out: E. histolytica (IC50 nM), trophozoites, 48 h at 37 °C, subcultured 48 h, Probit analysis

Row | SMILES | IC50 (T. vaginalis GT3 strain; [4]) [nM] | IC50 (G. lamblia WB strain; [5]) [nM] | IC50 [1, 6] [nM] | IC50 (T. vaginalis GT3 strain; [7]) [nM] | CC50 [2] [nM] | IC50 [1, 8] [nM] | inhibition at 100 µM [3] [%] | IC50 ([3]; DTNB reductase activity, 30 °C, pH 7.0) [nM] | Selectivity index, E. histolytica versus macrophages ([1]; CC50 J774.2 / IC50 E. histolytica) [fold] | EhTrxR inhibitory effect (disulphide reductase activity) ([3]; 100 µM compound, 5 mM DTNB, 300 µM NADPH, 30 °C, pH 7.0) | IC50 (G. lamblia WB strain; read-out: G. lamblia (IC50 nM), trophozoites, 48 h at 37 °C, subcultured 48 h, Probit analysis) [nM]
1 | CCCCOC(=O)c1ccc2c(c1)[n+]([O-])c(C(=O)Nc1ccc(C)cc1C)c(C)[n+]2[O-] [Compound T-144] | 118 ± 4.73 | 46.1 ± 1.18 | 47.3 ± 4.73 | – | – | – | – | – | – | – | –
2 | CCCCOC(=O)c1ccc2c(c1)[n+]([O-])c(C(=O)OC)c(C)[n+]2[O-] [Compound T-138] | 88 | 48.5 ± 1.5 | ~40 | 88.3 ± 12 | 46200 ± 3260 | 40.4 ± 4.49 | – | – | – | – | –
3 | Cc1ncc([N+](=O)[O-])n1CCO [Metronidazole, reference compound] | 210 ± 8.76 | 1150 ± 40.9 | 251 ± 5.48 | – | – | – | – | – | – | – | –
4 | COC(=O)c1c(C)[n+]([O-])c2ccc(C(=O)OCC(C)C)cc2[n+]1[O-] [Compound T-156] | 248 ± 5.99 | 95.8 ± 4.49 | 59.9 ± 5.99 | – | – | – | – | – | – | – | –
5 | CCCCOC(=O)c1ccc2c(c1)[n+]([O-])c(C(C)=O)c(C)[n+]2[O-] [Compound T-137] | 258 ± 6.29 | 77 ± 9.43 | 83.3 ± 1.57 | – | 58400 ± 1120 | – | – | – | – | – | –
6 | Cc1c(C(=O)Nc2ccccc2)[n+]([O-])c2cc(C(=O)OCC(C)C)ccc2[n+]1[O-] [Compound T-158] | 164 ± 10.1 | 62 ± 1.27 | 38 ± 2.53 | – | > 200000 | – | – | – | – | – | –
7 | CCCCOC(=O)c1ccc2c(c1)[n+]([O-])c(C(=O)OCC)c(C)[n+]2[O-] [Compound T-139] | ~100 | 47.4 ± 5.75 | ~30 | 103 ± 2.87 | > 200000 | 34.5 ± 7.18 | – | – | – | – | –
8 | CCCCOC(=O)c1ccc2c(c1)[n+]([O-])c(C(=O)c1ccccc1)c(C(F)(F)F)[n+]2[O-] [Compound T-148] | < 90 | 39.2 ± 3.46 | 16.1 ± 3.46 | 82.9 ± 8.06 | 48400 ± 1650 | – | 50 to 75 | – | – | – | –
9 | CCCCOC(=O)c1ccc2c(c1)[n+]([O-])c(C(C)=O)c(C(F)(F)F)[n+]2[O-] [Compound T-145] | 108 ± 16.1 | 40.3 ± 6.72 | 57.8 ± 6.72 | – | > 200000 | – | > 75 | 16000 | – | – | –
10 | CCCCOC(=O)c1ccc2c(c1)[n+]([O-])c(C(=O)c1ccccc1)c(C)[n+]2[O-] [Compound T-142] | < 90 | 36.8 ± 0.66 | 9.2 ± 1.32 | 81.5 ± 3.95 | 17600 ± 2140 | – | 50 to 75 | – | 1918 | – | –
11 | Cc1ccc(NC(=O)c2c(C)[n+]([O-])c3ccc(C(=O)OCC(C)C)cc3[n+]2[O-])c(C)c1 [Compound T-159] | 105 ± 1.18 | 94.5 ± 3.54 | 30.7 ± 5.91 | – | > 200000 | – | – | – | – | low inhibition | –
12 | CCCSc1ccc2nc(NC(=O)OC)[nH]c2c1 [Albendazole, reference compound] | 1830 ± 86.7 | 49 ± 5.65 | 44000 ± 2470 | – | – | – | – | – | – | – | –
13 | CCCCOC(=O)c1ccc2c(c1)[n+]([O-])c(C(=O)Nc1ccccc1)c(-c1ccccc1)[n+]2[O-] [Compound T-151] | 153 ± 3.28 | 114 ± 4.38 | 65.6 ± 2.19 | – | 44100 ± 3450 | – | – | – | – | – | –
14 | CC(C)COC(=O)c1ccc2c(c1)[n+]([O-])c(C(=O)c1ccco1)c(C(F)(F)F)[n+]2[O-] [Compound T-165] | 125 ± 2.36 | 101 ± 2.36 | 30.6 ± 2.36 | – | 81800 ± 3590 | – | – | – | – | – | –
15 | CCCCOC(=O)c1ccc2c(c1)[n+]([O-])c(C(=O)OC(C)(C)C)c(C)[n+]2[O-] [Compound T-140] | ~100 | 49.2 ± 2.66 | ~30 | 101 ± 3.99 | > 200000 | 29.2 ± 2.66 | 50 to 75 | – | – | – | –
16 | CCCCOC(=O)c1ccc2c(c1)[n+]([O-])c(C(=O)c1ccc3ccccc3c1)c(C(F)(F)F)[n+]2[O-] [Compound T-150] | 124 ± 2.27 | 51.6 ± 2.27 | 36.1 ± 1.14 | – | > 200000 | – | – | – | – | – | –
17 | CC(C)COC(=O)c1ccc2c(c1)[n+]([O-])c(C(=O)c1ccc3ccccc3c1)c(C(F)(F)F)[n+]2[O-] [Compound T-166] | 82.6 ± 4.13 | 41.3 ± 2.07 | 50.6 ± 5.17 | – | – | – | – | – | – | – | –
18 | CCCCOC(=O)c1ccc2c(c1)[n+]([O-])c(C(=O)c1cccs1)c(C(F)(F)F)[n+]2[O-] [Compound T-149] | 97.7 ± 9.09 | < 30 | 18.2 ± 2.27 | – | – | – | 50 to 75 | – | – | – | 27.3 ± 2.27
19 | CCCCOC(=O)c1ccc2c(c1)[n+]([O-])c(C(=O)OCc1ccccc1)c(C)[n+]2[O-] [Compound T-141] | 166 ± 6.1 | 70.7 ± 1.22 | ~40 | – | > 200000 | 40.2 ± 2.44 | – | – | – | – | –
20 | CC(=O)c1c(C)[n+]([O-])c2ccc(C(=O)OCC(C)C)cc2[n+]1[O-] [Compound T-155] | 192 ± 6.29 | – | 58.2 ± 1.57 | – | 87220 ± 213 | – | 50 to 75 | – | – | – | –
21 | CC(C)COC(=O)c1ccc2c(c1)[n+]([O-])c(C(=O)c1ccccc1)c(C(F)(F)F)[n+]2[O-] [Compound T-163] | 100 ± 5.76 | 34.5 ± 2.3 | 57.6 ± 2.3 | – | – | – | 50 to 75 | – | – | – | –
22 | CC(C)COC(=O)c1ccc2c(c1)[n+]([O-])c(C(=O)c1cccs1)c(C(F)(F)F)[n+]2[O-] [Compound T-164] | 118 ± 10.5 | 107 ± 9.21 | 27.3 ± 5.26 | – | 43800 ± 1890 | – | – | – | – | – | –
